Article PMC6001238, “Iterative Chemical Engineering of Vancomycin Leads to Novel Vancomycin Analogs With a High in Vitro Therapeutic Index” (Frontiers in Microbiology, 2018)
pIC50: −log10 of the molar value. In brackets after ≈: the same amount, converted by molar mass. Where two headings read alike, the source gives them in different places.

Experiments:
MRSA = assay: Minimum bactericidal concentration against MRSA; format: cell-based, Staphylococcus aureus
Method: Plates were incubated overnight at 37°C and colony growth was inspected.

[1] = tested on: 24 clinical MRSA isolates; assay: MIC against a set of 24 clinical MRSA isolates (range, MIC50, TI); format: cell-based, Staphylococcus aureus
Outline: (§1)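 MIC values come from broth microdilution run to CLSI susceptibility-testing standards. Ultrapure water and uninoculated broth served as controls. In one series, vancomycin at a final 10 μM was co-dosed with the analogue or comparator antibiotic.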

[2] = tested on: Murine leukemia (L1210) cells; assay: Cytostatic activity, L1210 cell proliferation; format: cell-based; settings: Mus musculus, L1210, 48 h, read-out: Toxicity (IC50) L1210
Outline: (§2)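 Coulter counter cell counts after 37°C culture with compound; IC50 = concentration giving 50% growth inhibition vs negative control. Incubation: L1210 2 d, CEM 3 d, HeLa 4 d. Suspension density before mixing with an equal volume of dilution: 300,000–500,000 cells/mL.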

MRSA KS2 = assay: MIC, broth microdilution, MRSA KS2; format: cell-based, Staphylococcus aureus
Outline: as §1

VE 149 (VanB) = assay: MIC, VanB-type VRE strain VE 149; format: cell-based, Enterococcus; settings: Enterococcus
Outline: as §1

MRSA KS6 = assay: MIC, broth microdilution, MRSA KS6; format: cell-based, Staphylococcus aureus
Outline: as §1

MRSA KS89 = assay: MIC, broth microdilution, MRSA KS89; format: cell-based, Staphylococcus aureus
Outline: as §1

VE 150 (VanB) = assay: MIC, VanB-type VRE strain VE 150; format: cell-based, Enterococcus; settings: Enterococcus
Outline: as §1

VE 82 (VanC1) = assay: MIC, VanC1-type VRE strain VE 82; format: cell-based, Enterococcus gallinarum; settings: Enterococcus gallinarum
Outline: as §1

E. faecalis VRE 37 = assay: MIC, broth microdilution, vancomycin-resistant E. faecalis VRE 37 (VanA); format: cell-based, Enterococcus faecalis
Outline: as §1

VE 152 (VanB) = assay: MIC, VanB-type VRE strain VE 152; format: cell-based, Enterococcus; settings: Enterococcus
Outline: as §1

[3] = tested on: Clostridium difficile ATJ ribotype 014/20; assay: MIC, plate drop assay, C. difficile ATJ ribotype 014/20; format: cell-based
Outline: (§3)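 Lawns of each strain were made in soft BHI agar (0.4%) supplemented with CaCl2⋅2H2O and MgCl2⋅6H2O. Twofold compound dilutions (10 μL) were spotted, air-dried and incubated overnight at 37°C anaerobically; MIC read as cleared spots, in triplicate with water as negative control.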

VE 148 (VanB) = assay: MIC, VanB-type VRE strain VE 148; format: cell-based, Enterococcus; settings: Enterococcus
Outline: as §1

E. faecalis VRE 29 = assay: MIC, broth microdilution, vancomycin-resistant E. faecalis VRE 29 (VanA); format: cell-based, Enterococcus faecalis
Outline: as §1

[4] = tested on: S. aureus VSSA (ATCC 6538); assay: MIC, broth microdilution, vancomycin-sensitive S. aureus (VSSA/MSSA, ATCC 6538); format: cell-based, Staphylococcus aureus
Outline: as §1

S. aureus VISA/HIP5827 = assay: MIC, broth microdilution, vancomycin-intermediate S. aureus VISA HIP5827; format: cell-based, Staphylococcus aureus
Outline: as §1

[5] = tested on: human T-lymphocyte (CEM) cells; assay: Cytostatic activity, CEM cell proliferation; format: cell-based; settings: Homo sapiens, CCRF-CEM, 72 h, read-out: Toxicity (IC50) CEM
Outline: as §2

33 clinical VRE isolates = assay: MIC against a set of 33 clinical VRE isolates (range, MIC50, TI); format: cell-based, Enterococcus faecalis; settings: VRE; for TI (IC50/MIC50): in vitro therapeutic index
Outline: as §1

E. faecalis VRE 6 = assay: MIC, broth microdilution, vancomycin-resistant E. faecalis VRE 6 (VanA); format: cell-based, Enterococcus faecalis
Outline: as §1

MRSA KS1 = assay: MIC, broth microdilution, MRSA KS1; format: cell-based, Staphylococcus aureus
Outline: as §1

E. faecalis VRE 53 = assay: MIC, broth microdilution, vancomycin-resistant E. faecalis VRE 53 (VanA); format: cell-based, Enterococcus faecalis
Outline: as §1

VE 157 (VanB) = assay: MIC, VanB-type VRE strain VE 157; format: cell-based, Enterococcus; settings: Enterococcus
Outline: as §1

[6] = tested on: Clostridium difficile AIU ribotype 027; assay: MIC, plate drop assay, C. difficile AIU ribotype 027; format: cell-based
Outline: as §3

E. faecalis VSE 1 = assay: MIC, broth microdilution, vancomycin-sensitive E. faecalis (VSE 1); format: cell-based, Enterococcus faecalis
Outline: as §1

[7] = tested on: L1210, CEM and HeLa cell lines; assay: Cytostatic activity, average or summary over L1210, CEM and HeLa; format: cell-based
Outline: as §2

S. aureus VRSA = assay: MIC, broth microdilution, vancomycin-resistant S. aureus (VRSA); format: cell-based, Staphylococcus aureus
Outline: as §1

[8] = tested on: human cervix carcinoma (HeLa) cells; assay: Cytostatic activity, HeLa cell proliferation; format: cell-based; settings: Homo sapiens, HeLa, 96 h, read-out: Toxicity (IC50) HeLa
Outline: as §2

For `CN[C@H](CC(C)C)C(=O)N[C@H]1C(=O)N[C@@H](CC(N)=O)C(=O)N[C@H]2C(=O)N[C@H]3C(=O)N[C@H](C(=O)N[C@H](C(=O)O)c4cc(O)cc(O)c4-c4cc3ccc4O)[C@H](O)c3ccc(c(Cl)c3)Oc3cc2cc(c3O[C@@H]2O[C@H](CO)[C@@H](O)[C@H](O)[C@H]2O[C@H]2C[C@](C)(N)[C@H](O)[C@H](C)O2)Oc2ccc(cc2Cl)[C@H]1O` [Vancomycin], the “MBC relative to MIC” value (MRSA) was “MBC equaling their MIC values”, the “MIC Range” value ([1]; 24 clinical MRSA isolates) was 0.78 to 6.25 µM and the MIC50 ([1]; Staphylococcus aureus, MRSA) was 1.56 µM (≈ 2.26 µg/mL). For the same compound, the “TI (IC50/MIC50)” value ([1]; in vitro therapeutic index, MRSA) was 160, the pIC50 [2] was < 3.60 and the “MIC-fold improvement vs. vancomycin” value (MRSA KS2; MRSA KS2, ratio of MIC of vancomycin and MIC of analogue) was 1. The MIC (MRSA KS2; Staphylococcus aureus, MRSA) was 0.78 µM (≈ 1.13 µg/mL), the MIC (VE 149 (VanB)) was 50 µM (≈ 72.5 µg/mL) and the “MIC-fold improvement vs. vancomycin” value (MRSA KS6; MRSA KS6, ratio of MIC of vancomycin and MIC of analogue) was 1. For the same compound, the MIC (MRSA KS6; Staphylococcus aureus, MRSA) was 0.78 µM (≈ 1.13 µg/mL), the “MIC-fold improvement vs. vancomycin” value (MRSA KS89; MRSA KS8 (head; KS89 in title), ratio of MIC of vancomycin and MIC of analogue) was 1 and the MIC (MRSA KS89; Staphylococcus aureus, MRSA) was 0.78 µM (≈ 1.13 µg/mL). The MIC (VE 150 (VanB)) was 100 µM (≈ 145 µg/mL), the MIC (VE 82 (VanC1)) was 3.13 µM (≈ 4.54 µg/mL) and the MIC (E. faecalis VRE 37; Enterococcus faecalis, VRE) was 400 µM (≈ 580 µg/mL). The “MIC-fold improvement vs. vancomycin” value (E. faecalis VRE 37; VRE 37, ratio of MIC of vancomycin and MIC of analogue) was 1, the MIC (VE 152 (VanB)) was 50 µM (≈ 72.5 µg/mL) and the “MIC-fold improvement vs. vancomycin” value ([3]; C. difficile ATJ ribotype 014/20) was 1. It also gave an MIC ([3]; Clostridioides difficile, C. difficile ATJ ribotype 014/20, plate drop assay) of 35 µM (≈ 50.7 µg/mL), an MIC (VE 148 (VanB)) of 100 µM (≈ 145 µg/mL) and an MIC (E. faecalis VRE 29; Enterococcus faecalis, VRE) of 400 µM (≈ 580 µg/mL). The “MIC-fold improvement vs. vancomycin” value (E. faecalis VRE 29; VRE 29, ratio of MIC of vancomycin and MIC of analogue) was 1, the MIC ([4]; Staphylococcus aureus, ATCC6538) was 0.78 µM (≈ 1.13 µg/mL) and the “MIC-fold improvement vs. vancomycin” value ([4]; VSSA, ratio of MIC of vancomycin and MIC of analogue) was 1. For the same compound, the MIC (S. aureus VISA/HIP5827; Staphylococcus aureus, VISA) was 6.25 µM (≈ 9.06 µg/mL), the “MIC-fold improvement vs. vancomycin” value (S. aureus VISA/HIP5827; VISA/HIP5827, ratio of MIC of vancomycin and MIC of analogue) was 1 and the pIC50 [5] was < 3.60. The MIC50 (33 clinical VRE isolates; Enterococcus) was 800 µM (≈ 1160 µg/mL), the “TI (IC50/MIC50)” value (33 clinical VRE isolates) was 0.3 and the “TI (IC50/MIC50)” value (33 clinical VRE isolates; listed as vancomycin) was < 1. It also gave an MICvanc/MICi (E. faecalis VRE 6; E. faecalis VRE 6, ratio of MIC of vancomycin and MIC of analogue) of 1, an MIC (E. faecalis VRE 6; Enterococcus faecalis VRE 6 (vancomycin-resistant), read-out: MIC) of 200 µM (≈ 290 µg/mL) and an MIC (E. faecalis VRE 6; Enterococcus faecalis, VRE) of 200 µM (≈ 290 µg/mL). The “MIC-fold improvement vs. vancomycin” value (E. faecalis VRE 6; VRE 6, ratio of MIC of vancomycin and MIC of analogue) was 1, the “MIC-fold improvement vs. vancomycin” value (MRSA KS1; MRSA KS1, ratio of MIC of vancomycin and MIC of analogue) was 1 and the MIC (MRSA KS1; Staphylococcus aureus, MRSA) was 0.78 µM (≈ 1.13 µg/mL). For the same compound, the MICvanc/MICi (E. faecalis VRE 53; E. faecalis VRE 53, ratio of MIC of vancomycin and MIC of analogue) was 1, the MIC (E. faecalis VRE 53; Enterococcus faecalis VRE 53 (vancomycin-resistant), read-out: MIC) was 400 µM (≈ 580 µg/mL) and the MIC (E. faecalis VRE 53; Enterococcus faecalis, VRE) was 400 µM (≈ 580 µg/mL). For the same compound, the “MIC-fold improvement vs. vancomycin” value (E. faecalis VRE 53; VRE 53, ratio of MIC of vancomycin and MIC of analogue) was 1, the MIC (VE 157 (VanB)) was 100 µM (≈ 145 µg/mL) and the “MIC-fold improvement vs. vancomycin” value ([6]; C. difficile AIU ribotype 027) was 1. It also gave an MIC ([6]; Clostridioides difficile, C. difficile AIU ribotype 027, plate drop assay) of 45 µM (≈ 65.2 µg/mL), an MICvanc/MICi (E. faecalis VSE 1; E. faecalis VSE 1, ratio of MIC of vancomycin and MIC of analogue) of 1 and an MIC (E. faecalis VSE 1; Enterococcus faecalis VSE 1 (vancomycin-sensitive), read-out: MIC) of 1.56 µM (≈ 2.26 µg/mL). The MIC (E. faecalis VSE 1; Enterococcus faecalis, VSE1) was 1.56 µM (≈ 2.26 µg/mL), the “MIC-fold improvement vs. vancomycin” value (E. faecalis VSE 1; VSE 1, ratio of MIC of vancomycin and MIC of analogue) was 1 and the pIC50 [7] was 3.60. The pIC50 ([7]; read-out: IC50 (L1210, CEM, HeLa), depending on the cell line used) was < 3.60, the pIC50 ([7]; read-out: Toxicity (IC50) Average) was < 3.60 and the MIC (S. aureus VRSA; Staphylococcus aureus VRSA) was 100 µM (≈ 145 µg/mL). For the same compound, the “MIC-fold improvement vs. vancomycin” value (S. aureus VRSA; VRSA, ratio of MIC of vancomycin and MIC of analogue) was 1 and the pIC50 [8] was < 3.60.
